Data as given in patent US11691986B2, “PTEFB inhibiting macrocyclic compounds” (Bayer Aktiengesellschaft, priority 2017, dated 2023).

Key:
CDK2/CycE = target: T1, CDK2/CycE (Homo sapiens, UniProt P24941); test: CDK2/CycE high ATP kinase assay (TR-FRET); assay type: biochemical; details: 2 mM ATP, Method 2b
T1 construct: GST; purchased ProQinase GmbH (Freiburg, Germany); host or cells: insect cells (Sf9)
Method: 2b. CDK2/CycE High ATP Kinase Assay
CDK2/CycE-inhibitory activity of compounds of the present invention at 2 mM adenosine-tri-phosphate (ATP) was quantified employing the CDK2/CycE TR-FRET (TR-FRET=Time Resolved Fluorescence Energy Transfer) assay as described in the following paragraphs.
Recombinant fusion proteins of GST and human CDK2 and of GST and human CycE, expressed in insect cells (Sf9) and purified by Glutathion-Sepharose affinity chromatography, were purchase from ProQinase GmbH (Freiburg, Germany). As substrate for the kinase reaction biotinylated peptide biotin-Ttds-YISPLKSPYKISEG (C-terminus in amid form) was used which can be purchased e.g. form the company JERINI peptide technologies (Berlin, Germany).
For the assay 50 nl of a 100 fold concentrated solution of the test compound in DMSO was pipetted into either a black low volume 384 well microtiter plate or a black 1536 well microtiter plate (both Greiner Bio-One, Frickenhausen, Germany), 2 μl of a solution of CDK2/CycE in aqueous assay buffer [50 mM Tris/HCl pH 8.0, 10 mM MgCl2, 1.0 mM dithiothreitol, 0.1 mM sodium ortho-vanadate, 0.01% (v/v) Nonidet-P40 (Sigma)] were added and the mixture was incubated for 15 min at 22° C. to allow pre-binding of the test compounds to the enzyme before the start of the kinase reaction. […] The concentration of CDK2/CycE was adjusted depending of the activity of the enzyme lot and was chosen appropriate to have the assay in the linear range, typical concentrations were about 10 ng/ml. The reaction was stopped by the addition of 3 μl of a solution of TR-FRET detection reagents (0.333 μM streptavidine-XL665 [Cisbio Bioassays, Codolet, France] and 1.67 nM anti-RB(pSer807/pSer811)-antibody from BD Pharmingen [#558389] and 2 nM LANCE EU-W1024 labeled anti-mouse IgG antibody [Perkin-Elmer, product no. AD0077, as an alternative a Terbium-cryptate-labeled anti-mouse IgG antibody from Cisbio Bioassays can be used]) in an aqueous EDTA-solution (167 mM EDTA, 0.2% (w/v) bovine serum albumin in 100 mM HEPES pH 7.5).
The resulting mixture was incubated 1 h at 22° C. to allow the formation of complex between the phosphorylated biotinylated peptide and the detection reagents. Subsequently the amount of phosphorylated substrate was evaluated by measurement of the resonance energy transfer from the Eu-chelate to the streptavidine-XL. Therefore, the fluorescence emissions at 620 nm and 665 nm after excitation at 350 nm was measured in a TR-FRET reader, e.g. a Pherastar (BMG Labtechnologies, Offenburg, Germany) or a Viewlux (Perkin-Elmer). The ratio of the emissions at 665 nm and at […] was taken as the measure for the amount of phosphorylated substrate. The data were normalised (enzyme reaction without inhibitor=0% inhibition, all other assay components but no enzyme=100% inhibition).

DU145 cells = test: Proliferation assay, DU145 (crystal violet); assay type: cell-based; details: Homo sapiens, DU-145, 96 h; DU145, 4 days; read-out: Inhibition of DU145 cell proliferation IC50
Method: (§1) Cultivated tumour cells (HeLa, human cervical tumour cells, ATCC CCL-2; NCI-H460, human non-small cell lung carcinoma cells, ATCC HTB-177; DU 145, hormone-independent human prostate carcinoma cells, ATCC HTB-81; HeLa-MaTu-ADR, multidrug-resistant human cervical carcinoma cells, EPO-GmbH Berlin; Caco-2, human colorectal carcinoma cells, ATCC HTB-37; B16F10, mouse melanoma cells, ATCC CRL-6475) were plated at a density of 5,000 cells/well (DU145, HeLa-MaTu-ADR), 3,000 cells/well (NCI-H460, HeLa), 1,500 cells/well (Caco-2), or 1,000 cells/well (B16F10) in a 96-well multititer plate in 200 μL of their respective growth medium supplemented 10% fetal calf serum. After 24 hours, the cells of one plate (zero-point plate) were stained with crystal violet (see below), while the medium of the other plates was supplemented with the test substances in various concentrations (0 μM, as well as in the range of 0.0001-10 μM; the final concentration of the solvent dimethyl sulfoxide was adjusted to 0.1%) using a Hewlett-Packard HP D300 Digital Dispenser. The cells were incubated for 4 days in the presence of test substances. Cell proliferation was determined by staining the cells with crystal violet: the cells were fixed by adding 20 μl/measuring point of an 11% glutaric aldehyde solution for 15 minutes at room temperature. After three washing cycles of the fixed cells with water, the plates were dried at room temperature. The cells were stained by adding 100 μl/measuring point of a 0.1% crystal violet solution (pH 3.0). After three washing cycles of the stained cells with water, the plates were dried at room temperature. The dye was dissolved by adding 100 μl/measuring point of a 10% acetic acid solution. The extinction was determined by photometry at a wavelength of 595 nm. The change of cell number, in percent, was calculated by normalization of the measured values to the extinction values of the zero-point plate (=0%) and the extinction of the untreated (0 Wm) cells (=100%). The IC50 values (inhibitory concentration at 50% of maximal effect) were determined by means of a 4 parameter fit.

Caco-2 cells = test: Proliferation assay, Caco-2 (crystal violet); assay type: cell-based; details: Homo sapiens, 96 h; Caco-2, 4 days; read-out: Inhibition of Caco-2 cell proliferation IC50
Method: as §1

A2780 cells = test: Proliferation assay, A2780 (Cell Titre-Glo); assay type: cell-based; details: Homo sapiens; A2780, 72-hour exposure; read-out: Inhibition of A2780 cell proliferation IC50
Method: (§2) A2780 human ovarian carcinoma cells (ECACC #93112519) and non-adherent MOLM-13 human acute myeloid leukemia cells (DSMZ ACC 554) were seeded at a density of 3,000 cell/well (A2780) or 5,000 cells/well (MOLM-13) in a 96-well multititer plate in 150 μL of growth medium supplemented 10% fetal calf serum. After 24 hours, cell viability of one plate (zero-point plate) was determined with the Cell Titre-Glo Luminescent Cell Viability Assay (Promega), while the medium of the other plates was supplemented with the test substances in various concentrations (0 μM, as well as in the range of 0.0001-10 μM; the final concentration of the solvent dimethyl sulfoxide was adjusted to 0.1%) using a Hewlett-Packard HP D300 Digital Dispenser. Cell viability was assessed after 72-hour exposure with the Cell Titre-Glo Luminescent Cell Viability Assay (Promega). IC50 values (inhibitory concentration at 50% of maximal effect) were determined by means of a 4 parameter fit on measurement data which were normalized to vehicle (DMSO) treated cells (=100%) and measurement readings taken immediately before compound exposure (=0%).

MOLM-13 cells = test: Proliferation assay, MOLM-13 (Cell Titre-Glo); assay type: cell-based; details: Homo sapiens; MOLM-13, 72-hour exposure; read-out: Inhibition of MOLM-13 cell proliferation IC50
Method: as §2

| SMILES | IC50 (CDK2/CycE) [µM] | IC50 (DU145 cells) [µM] | IC50 (Caco-2 cells) [µM] | IC50 (A2780 cells) [µM] | IC50 (MOLM-13 cells) [µM] |
| --- | --- | --- | --- | --- | --- |
| CC(C)(C)OC(=O)N=S(C)(=O)Cc1cc2cc(c1)OCCCCNc1cc(ccc1F)-c1nc(ncc1F)N2 (racemic) [Example 1, (rac)-tert-butyl [{[3,20-difluoro-13-oxa-5,7,18,25-tetraazatetracyclo[17.3.1.1^2,6.1^8,12]pentacosa-1(23),2(25),3,5,8(24),9,11,19,21-nonaen-10-yl]methyl}(methyl)oxido-λ^6-sulfanylidene]carbamate] | 0.855 | 0.036 | 0.07 | 0.013 | 0.0071 |
| CS(=N)(=O)Cc1cc2cc(c1)OCCCCNc1cc(ccc1F)-c1nc(ncc1F)N2 (racemic) [Example 2, (rac)-3,20-difluoro-10-[(S-methylsulfonimidoyl)methyl]-13-oxa-5,7,18,25-tetraazatetracyclo[17.3.1.1^2,6.1^8,12]pentacosa-1(23),2(25),3,5,8(24),9,11,19,21-nonaene] | 0.155 | 0.0045 | 0.0084 | 0.0012 | 0.002 |
| CS(=N)(=O)Cc1cc2cc(c1)OCCCNc1cc(ccc1F)-c1nc(ncc1F)N2 (racemic) [Example 3, (rac)-3,19-difluoro-10-[(S-methylsulfonimidoyl)methyl]-13-oxa-5,7,17,24-tetraazatetracyclo[16.3.1.1^2,6.1^8,12]tetracosa-1(22),2(24),3,5,8(23),9,11,18,20-nonaene] | 0.829 | 0.017 | 0.02 | 0.0059 | 0.0058 |
| CC1CCCNc2cc(ccc2F)-c2nc(ncc2F)Nc2cc(CS(C)(=O)=O)cc(c2)O1 (racemic) [Example 8, (rac)-3,20-difluoro-14-methyl-10-[(methylsulfonyl)methyl]-13-oxa-5,7,18,25-tetraazatetracyclo[17.3.1.1^2,6.1^8,12]pentacosa-1(23),2(25),3,5,8(24),9,11,19,21-nonaene] | 0.464 | – | – | 0.0077 | – |
